Data: patent US20250262333A1, “Construct for Transferring Foreign Substance, and Use Thereof” (TOAGOSEI CO., LTD., priority 2022, published 2025)
FAM = 5(6)-carboxyfluorescein (C21H12O7), a fluorescent dye

What follows are substances tested on HeLa cells (assay: Evaluation of cell membrane penetration by flow cytometry). Details: 10 μM additive, 0.5% DMSO, 20 hours at 37° C., 5% CO2, FAM fluorescence, detector FL2.
Format: cell-based, human
Experimental: As the eukaryotic cells, HeLa cells (established cell strain derived from a human cervical cancer cell) were used and the cell membrane penetration of the peptides 1 to 6 was analyzed. In Examples 1 to 6, the prepared samples 1 to 6 were used, respectively, and in Example 7, the FAM solution was used.
The HeLa cell was cultured in 10% fetal bovine serum (FBS)-containing Dulbecco's modified Eagle's medium (DMEM (Cat No. 043-30085, manufactured by FUJIFILM Wako Pure Chemical Corporation)), which is a normal culture medium.
The HeLa cell that adhered to a culture plate was cleaned with PBS and then, a 0.25%-trypsin/EDTA solution was added thereto, and incubation was performed for three minutes at 37° C. After the incubation, the aforementioned 10% FBS-containing DMEM was added to deactivate trypsin and then, five-minute centrifugal separation was performed at 150×g to precipitate the cells. After the supernatant generated by the centrifugal separation was removed, the 10% FBS-containing DMEM was added to the precipitate (cell pellet) to prepare a cell suspension of about 2×10^5 cells/mL. The cell suspension was added by 1 mL to a well of a commercially available six-hole (well) plate (manufactured by AGC TECHNO GLASS Co., Ltd.) so as to seed the cell (about 2×10^5 cells/well). In addition, the 2 mM sample solution 1 was diluted with the 10% FBS-containing DMEM to prepare the sample solution 1 in which the concentration of the sample 1 was 20 μM. Then, 1 mL of the 20 μM sample solution 1 was added to the well (that is, so that the concentration of the sample 1 became 10 μM and the DMSO concentration became 0.5% in the culture solution in the well). After that, the cell was incubated for 20 hours at 37° C. under a 5% CO2 condition.
After the 20-hour incubation, the culture supernatant was removed from the well and the cells in the well were cleaned twice with 1 mL of PBS. Next, 200 μL of the 0.25% trypsin/EDTA solution was added to the well and the incubation was performed for three minutes at 37° C. After the incubation, 400 μL of the 10% FBS-containing DMEM was added to the well to deactivate the trypsin. Subsequently, the cell suspension in the well was transferred to a tube and the cells were collected. After that, 600 μL of PBS was added further to the well to clean the well. Then, PBS in the well was transferred to the tube, so that the cells remaining in the well were collected in the tube. This tube was subjected to five-minute centrifugal separation at 4° C. under a condition of 210×g. After the centrifugal separation, the supernatant was removed and the precipitate (cell pellet) was suspended (cleaned) with 1 mL of PBS, which was followed by the centrifugal separation under the same condition as that described above. After this operation was repeated twice, the supernatant was removed and thus, the cells (cell pellet) cultured in a culture medium containing the sample 1 were obtained.
Regarding the obtained cells (cell pellet), the cell membrane penetration of the sample 1 was analyzed using a flow cytometer. As the flow cytometer, On-Chip Flowcytometer (manufactured by On-Chip Biotechnologies Co., LTD.) was used.
For such an analysis, the obtained cell pellet was suspended with 50 μL of PBS. To this suspension, additionally, 50 μL of 2× sample buffer for the flow cytometer was added so as to prepare a cell suspension for analysis.
Using the aforementioned flow cytometer, gating based on forward scatter (FSC) and side scatter (SSC) was performed to set a gate about a cell group to be analyzed, and the fluorescence intensity was measured about the cell group in this gate. Note that the analysis was performed so that the cell group contained at least 10000 or more cells. The fluorescence intensity was measured using a fluorescence detector FL2 of the flow cytometer (optimum detection wavelength around 543 nm) capable of detecting the fluorescence wavelength of FAM. […]

Going from “5 (6)-carboxyfluorescein [Example 7, reference compound]” to “Ac-KSKKYTSWYVALKR-FAM (Ac-KSKKYTSWYVALKR-{FAM}) [Example 3]”, the “MFI (mean fluorescence intensity)” value rises from 10.5 to 14.6.

First: Ac-KSRKYTSWYVALKR-FAM (Ac-KSRKYTSWYVALKR-{FAM}) [Example 4]
Second: Ac-RSKKYTSWYVALKR-FAM (Ac-RSKKYTSWYVALKR-{FAM}) [Example 5]
The “MFI (mean fluorescence intensity)” value of the first is higher: 13.2 for the first, 12.8 for the second.

Going from Ac-RSRKYTSWYVALKK-FAM [Example 6] to “Ac-RSRKYTSWYVALKR-FAM (Ac-RSRKYTSWYVALKR-{FAM}) [Example 2, reference compound]”, the “MFI (mean fluorescence intensity)” value rises from 11.1 to 13.4.

“Ac-RSRKYTSWYVALKRWPC-FAM (Ac-RSRKYTSWYVALKRWPC-{FAM}) [Example 1]” was tested, and the “MFI (mean fluorescence intensity)” value was 50.4.

Same assay, conditions: 10 μM, 20 hours, compared with Example 2 (construct including the peptide 2)

In the case of “Ac-RSRKYTSWYVALKRWPC-FAM (Ac-RSRKYTSWYVALKRWPC-{FAM}) [Example 1]”, the “cell membrane penetration / value of MFI, comparison in words” value was “remarkably higher”.
